The target in this series is SMN2. Briefly: mouse, dose not given. As to conditions: ASO.

HELM strings list units from the 5' end as sugar, base in round brackets, then linkage (d deoxyribose, r ribose, m 2'-O-methyl, p phosphodiester). Strings are as the collection lists them; they lack the last nucleoside at the 3' end of the tested compound. [moe] = 2'-O-(2-methoxyethyl) (MOE); [sp] = phosphorothioate linkage; [m5C] = 5-methylcytosine

As to “RNA1{[moe]([m5C])[sp].[moe](T)[sp].[moe](T)[sp].[moe](T)[sp].[moe]([m5C])[sp].[moe](A)[sp].[moe](T)p.[moe](A)p.[moe](A)p.[moe](T)p.[moe](G)[sp].[moe]([m5C])[sp].[moe](T)[sp].[moe](G)[sp].[moe](G)}$$$$ (last 3' nucleoside missing)”, the 3 h FOB score turned out to be 0.75 score 0-7. The value for “RNA1{[moe]([m5C])[sp].[moe](T)[sp].[moe](T)[sp].[moe](T)[sp].[moe]([m5C])[sp].[moe](A)p.[moe](T)p.[moe](A)p.[moe](A)p.[moe](T)p.[moe](G)[sp].[moe]([m5C])[sp].[moe](T)[sp].[moe](G)[sp].[moe](G)}$$$$ (last 3' nucleoside missing)” was 1 score 0-7; that for “RNA1{[moe]([m5C])[sp].[moe](T)[sp].[moe](T)[sp].[moe](T)[sp].[moe]([m5C])[sp].[moe](A)p.[moe](T)p.[moe](A)p.[moe](A)p.[moe](T)p.[moe](G)p.[moe]([m5C])[sp].[moe](T)[sp].[moe](G)[sp].[moe](G)}$$$$ (last 3' nucleoside missing)” was 0.75 score 0-7. For “RNA1{[moe]([m5C])[sp].[moe](T)[sp].[moe](T)[sp].[moe](T)[sp].[moe]([m5C])p.[moe](A)p.[moe](T)p.[moe](A)p.[moe](A)[sp].[moe](T)[sp].[moe](G)[sp].[moe]([m5C])[sp].[moe](T)[sp].[moe](G)[sp].[moe](G)}$$$$ (last 3' nucleoside missing)”, the 3 h FOB score came to 1 score 0-7.

The substance “RNA1{[moe]([m5C])[sp].[moe](T)[sp].[moe](T)[sp].[moe](T)[sp].[moe]([m5C])p.[moe](A)p.[moe](T)p.[moe](A)p.[moe](A)p.[moe](T)p.[moe](G)p.[moe]([m5C])[sp].[moe](T)[sp].[moe](G)[sp].[moe](G)}$$$$ (last 3' nucleoside missing)” displayed a 3 h FOB score of 0 score 0-7. The same measure for “RNA1{[moe]([m5C])[sp].[moe](T)[sp].[moe](T)[sp].[moe](T)p.[moe]([m5C])[sp].[moe](A)[sp].[moe](T)[sp].[moe](A)p.[moe](A)[sp].[moe](T)[sp].[moe](G)[sp].[moe]([m5C])p.[moe](T)[sp].[moe](G)[sp].[moe](G)}$$$$ (last 3' nucleoside missing)”: 0.75 score 0-7; for “RNA1{[moe]([m5C])[sp].[moe](T)[sp].[moe](T)p.[moe](T)[sp].[moe]([m5C])[sp].[moe](A)[sp].[moe](T)[sp].[moe](A)[sp].[moe](A)[sp].[moe](T)[sp].[moe](G)[sp].[moe]([m5C])[sp].[moe](T)p.[moe](G)[sp].[moe](G)}$$$$ (last 3' nucleoside missing)”: 0.5 score 0-7; for “RNA1{[moe]([m5C])[sp].[moe](T)[sp].[moe](T)p.[moe](T)[sp].[moe]([m5C])[sp].[moe](A)p.[moe](T)[sp].[moe](A)[sp].[moe](A)p.[moe](T)[sp].[moe](G)[sp].[moe]([m5C])p.[moe](T)[sp].[moe](G)[sp].[moe](G)}$$$$ (last 3' nucleoside missing)”: 0 score 0-7. The same measure for “RNA1{[moe]([m5C])[sp].[moe](T)[sp].[moe](T)p.[moe](T)[sp].[moe]([m5C])[sp].[moe](A)p.[moe](T)[sp].[moe](A)[sp].[moe](A)p.[moe](T)[sp].[moe](G)p.[moe]([m5C])[sp].[moe](T)p.[moe](G)[sp].[moe](G)}$$$$ (last 3' nucleoside missing)”: 0 score 0-7; for “RNA1{[moe]([m5C])[sp].[moe](T)[sp].[moe](T)p.[moe](T)[sp].[moe]([m5C])p.[moe](A)[sp].[moe](T)p.[moe](A)[sp].[moe](A)p.[moe](T)[sp].[moe](G)p.[moe]([m5C])[sp].[moe](T)p.[moe](G)[sp].[moe](G)}$$$$ (last 3' nucleoside missing)”: 0.25 score 0-7; for “RNA1{[moe]([m5C])[sp].[moe](T)[sp].[moe](T)p.[moe](T)p.[moe]([m5C])p.[moe](A)p.[moe](T)[sp].[moe](A)[sp].[moe](A)[sp].[moe](T)[sp].[moe](G)[sp].[moe]([m5C])[sp].[moe](T)[sp].[moe](G)[sp].[moe](G)}$$$$ (last 3' nucleoside missing)”: 0 score 0-7. The substance “RNA1{[moe]([m5C])[sp].[moe](T)p.[moe](T)p.[moe](T)[sp].[moe]([m5C])[sp].[moe](A)[sp].[moe](T)[sp].[moe](A)[sp].[moe](A)[sp].[moe](T)[sp].[moe](G)[sp].[moe]([m5C])p.[moe](T)p.[moe](G)[sp].[moe](G)}$$$$ (last 3' nucleoside missing)” had a 3 h FOB score of 0.25 score 0-7. The value for “RNA1{[moe]([m5C])[sp].[moe](T)p.[moe](T)p.[moe](T)p.[moe]([m5C])[sp].[moe](A)[sp].[moe](T)[sp].[moe](A)[sp].[moe](A)[sp].[moe](T)[sp].[moe](G)[sp].[moe]([m5C])p.[moe](T)p.[moe](G)[sp].[moe](G)}$$$$ (last 3' nucleoside missing)” was 0 score 0-7; that for “RNA1{[moe]([m5C])[sp].[moe](T)p.[moe](T)p.[moe](T)p.[moe]([m5C])[sp].[moe](A)[sp].[moe](T)[sp].[moe](A)[sp].[moe](A)[sp].[moe](T)[sp].[moe](G)p.[moe]([m5C])p.[moe](T)p.[moe](G)[sp].[moe](G)}$$$$ (last 3' nucleoside missing)” was 0 score 0-7; that for “RNA1{[moe]([m5C])[sp].[moe](T)p.[moe](T)p.[moe](T)p.[moe]([m5C])p.[moe](A)[sp].[moe](T)[sp].[moe](A)[sp].[moe](A)[sp].[moe](T)[sp].[moe](G)p.[moe]([m5C])p.[moe](T)p.[moe](G)[sp].[moe](G)}$$$$ (last 3' nucleoside missing)” was 0 score 0-7. Consider “RNA1{[moe]([m5C])p.[moe](T)[sp].[moe]([m5C])[sp].[moe](A)[sp].[moe]([m5C])[sp].[moe](T)[sp].[moe](T)[sp].[moe](T)[sp].[moe]([m5C])[sp].[moe](A)[sp].[moe](T)[sp].[moe](A)[sp].[moe](A)[sp].[moe](T)[sp].[moe](G)[sp].[moe]([m5C])[sp].[moe](T)[sp].[moe](G)}$$$$ (last 3' nucleoside missing)”, for which the 3 h FOB score turned out to be 3.5 score 0-7.

The values above are taken from the OligoGym collection.
